The values below come from patent publication US9975906B2, “Tricyclic heterocycle derivatives having HIV replication inhibitory effect” (Shionogi & Co., Ltd., priority 2014, dated 2018).

pEC50: −log10 of the molar value.

One data set has as its system HIV (HTLV-IIIB strain). The data set is described as follows: HIV Replication Inhibition Assay. Type of data set: cell-based. Particulars: Human immunodeficiency virus 1, MT4, 96 h, MT-4 cells, cultured four days, MTT, concentration at which cell cytotoxicity by virus is inhibited 50%. How it is done: HIV (HTLV-IIIB strain) persistent infected human T cell strain Molt-4 clone 8 was cultured in 10% Fetal Bovine Serum-containing RPMI-1640 medium and the supernatant was filtered, then the virus titer was measured and the solution was stored at −80° C. Each anti-human immunodeficiency virus active substance was diluted with the above cultured medium to the designated concentration, which was dispensed into 96 well micro plate by 50 μL. Next, a MT-4 cell suspended liquid was dispensed by 100 μL (2.5×10^4 cells), then the above HIV-containing supernatant diluted with the above cultured medium was added thereto by 50 μl (60 pfu (plaque forming unit)).
The obtained mixture was cultured at 37° C. in CO2 incubator for four days, then 3-(4,5-dimethylthiazole-2-yl)-2,5-diphenyltetrazolynium bromide (MTT) 5 mg/mL in PBS was added to each well by 30 μL, followed by 1 hr-cultivation. In this step, as formazan was precipitated by reduction of MTT in living cells, the cell supernatant was removed from all was by 150 μL, then a 150 μL of solution (10% Triton X-100 and 0.4% (v/v)-HCl containing isopropanol) was added thereto, followed by shaking with a plate mixer, to elute formazan. The formazan was measured with a microreader at OD: 560 nm and 690 nm (reference wavelength) and the result was compared with the reference. EC50 means the compound concentration at which cell cytotoxicity by virus is inhibited 50%.
Regarding `Cc1c(-c2c(C(OC(C)(C)C)C(=O)O)c(C)c3c4c2c(C)cn4CCN3S(C)(=O)=O)ccc2c1CCCO2` (single isomer, unassigned) [Compound I-006], the pEC50 was 7.85.
Compound `Cc1ccc(-c2c(C(OC(C)(C)C)C(=O)O)c(C)c3c4c2cc(-c2ccnc(-c5ccc6c(cnn6C)c5)c2)n4CCN3S(C)(=O)=O)cc1` (stereo not shown) [Compound I-008] had a pEC50 of 8.23. This pEC50 is 0.38 log units higher than that of the compound before.
`Cc1ccc(-c2c(C(OC(C)(C)C)C(=O)O)c(C)c3c4c2cc(-c2ccnc(N5CCN(C(C)C)CC5)n2)n4CCN3S(C)(=O)=O)cc1` (stereo not shown) [Compound I-009] had a pEC50 of 7.49.
The same measure, in the same setting: the same measure for `Cc1ccc(-c2c(C(OC(C)(C)C)C(=O)O)c(C)c3c4c2cc(-c2ccnc(Cl)c2)n4CCN3S(C)(=O)=O)cc1` (stereo not shown) [Compound I-010]: 7.80; for `Cc1ccc(-c2c([C@H](OC(C)(C)C)C(=O)O)c(C)c3c4c2cc(-c2ccnc(-c5ccc6c(cnn6C)c5)c2)n4CCN3S(C)(=O)=O)cc1` [Compound I-011]: 8.64; for `CC(=O)N1CCn2c(-c3ccnc(-c4ccc5c(cnn5C)c4)c3)cc3c(-c4ccc(C)cc4)c(C(OC(C)(C)C)C(=O)O)c(C)c1c32` (stereo not shown) [Compound I-012]: 8.43.
The same measure, in the same setting: the same measure for `CC(=O)N1CCn2c(-c3ccnc(-c4ccc5c(cnn5C)c4)c3)cc3c(-c4ccc(C)cc4)c([C@H](OC(C)(C)C)C(=O)O)c(C)c1c32` [Compound I-013]: 8.47; for `Cc1c(-c2c([C@H](OC(C)(C)C)C(=O)O)c(C)c3c4c2cc(-c2ccnc(-c5ccc6c(cnn6C)c5)c2)n4CCN3S(C)(=O)=O)cc(F)c2c1CCCO2` [Compound I-014]: 8.89; for `Cc1c([C@H](OC(C)(C)C)C(=O)O)c(C2=CCC(C)(C)CC2)c2cc(-c3ccnc(-c4ccc5c(cnn5C)c4)c3)n3c2c1N(S(C)(=O)=O)CC3` [Compound I-015]: 8.40.
Still for that read-out and setting: the same measure for `Cc1c([C@H](OC(C)(C)C)C(=O)O)c(-c2ccc(Cl)cc2)c2cc(-c3ccnc(-c4ccc5c(cnn5C)c4)c3)n3c2c1N(S(C)(=O)=O)CC3` [Compound I-016]: 8.41; for `Cc1ccc(-c2c([C@H](OC(C)(C)C)C(=O)O)c(C)c3c4c2cc(-c2ccnc(N5CCN(C(C)C)CC5)c2)n4CCN3S(C)(=O)=O)cc1` [Compound I-017]: 8.04.
In turn, `CC(=O)N1CCn2c(-c3ccnc(-c4ccc5c(cnn5C)c4)c3)cc3c(-c4cc(F)c5c(c4C)CCCO5)c([C@H](OC(C)(C)C)C(=O)O)c(C)c1c32` [Compound I-018] showed a pEC50 of 8.96.
On the same count and under the same terms, the same measure for `Cc1ccc(-c2c([C@H](OC(C)(C)C)C(=O)O)c(C)c3c4c2cc(-c2ccnc(-c5ccc6c(cnn6C)c5)c2)n4CC(=O)N3)cc1` [Compound I-019]: 8.22; for `Cc1ccc(-c2c([C@H](OC(C)(C)C)C(=O)O)c(C)c3c4c2cc(-c2ccnc(-c5ccc6c(cnn6C)c5)c2)n4CC(=O)N3C)cc1` [Compound I-020]: 8.44.
The same measure, in the same setting: the same measure for `Cc1ccc(-c2c([C@H](OC(C)(C)C)C(=O)O)c(C)c3c4c2cc(-c2ccnc(-c5ccc6c(cnn6C)c5)c2)n4CCN3C(=O)CN(C)C)cc1` [Compound I-021]: 8.42; for `Cc1c(-c2c([C@H](OC(C)(C)C)C(=O)O)c(C)c3c4c2cc(-c2ccnc(-c5ccc6c(cnn6C)c5)c2)n4CCN3S(C)(=O)=O)ccc2c1NCCO2` [Compound I-022]: 8.40; for `Cc1ccc(-c2c([C@H](OC(C)(C)C)C(=O)O)c(C)c3c4c2cc(-c2ccnc(-c5ccc6c(cnn6C)c5)c2)n4CC(C)N3S(C)(=O)=O)cc1` (stereo partly shown) [Compound I-023]: 9.09.
The same measure, in the same setting: the same measure for `Cc1ccc(-c2c([C@H](OC(C)(C)C)C(=O)O)c(C)c3c4c2cc(C(=O)N2CCC(c5ccccc5)CC2)n4CCN3S(C)(=O)=O)cc1` [Compound I-024]: 8.38; for `Cc1ccc(-c2c([C@H](OC(C)(C)C)C(=O)O)c(C)c3c4c2cc(-c2ccnc(-c5ccc6c(cnn6C)c5)c2)n4CS(=O)(=O)N3)cc1` [Compound I-025]: 7.05.
Turning to `CC(=O)N1CCn2c(-c3ccnc(-c4ccc5c(cnn5C)c4)c3)cc3c(C4=CCC(C)(C)CC4)c([C@H](OC(C)(C)C)C(=O)O)c(C)c1c32` [Compound I-026], the pEC50 was 8.43.
Same read-out and setting: with `CC(=O)N1CCn2c(-c3ccnc(-c4ccc5c(cnn5C)c4)c3)cc3c(-c4ccc5c(c4C)NCCO5)c([C@H](OC(C)(C)C)C(=O)O)c(C)c1c32` [Compound I-027] the figure was 8.77.
Same read-out and setting: the same measure for `CC(=O)N1CCn2c(-c3ccnc(-c4ccc5c(cnn5C)c4)c3)cc3c(-c4ccc(Cl)cc4)c([C@H](OC(C)(C)C)C(=O)O)c(C)c1c32` [Compound I-028]: 8.48; for `Cc1ccc(-c2c([C@H](OC(C)(C)C)C(=O)O)c(C)c3c4c2cc(-c2ccnc(-c5ccc6c(cnn6C)c5)c2)n4CS(=O)(=O)N3C)cc1` [Compound I-029]: 8.62; for `Cc1ccc(-c2c([C@H](OC(C)(C)C)C(=O)O)c(C)c3c4c2cc(-c2ccnc(-c5ccc6c(cnn6C)c5)c2)n4CCN3C)cc1` [Compound I-030]: 8.72.
Still for that read-out and setting: the same measure for `Cc1ccc(-c2c([C@H](OC(C)(C)C)C(=O)O)c(C)c3c4c2cc(C(=O)NCCC(C)(C)C)n4CCN3S(C)(=O)=O)cc1` [Compound I-031]: 8.54; for `Cc1ccc(-c2c([C@H](OC(C)(C)C)C(=O)O)c(C)c3c4c2cc(C(=O)NCc2ccccc2)n4CCN3S(C)(=O)=O)cc1` [Compound I-032]: 8.28.
With `Cc1ccc(-c2c([C@H](OC(C)(C)C)C(=O)O)c(C)c3c4c2cc(C(=O)NCCC(C)(C)C)n4CCN3C)cc1` [Compound I-035], the pEC50 was 8.28.
The same measure, in the same setting: with `Cc1ccc(-c2c([C@H](OC(C)(C)C)C(=O)O)c(C)c3c4c2cc(-c2nnc(-c5ccc6c(cnn6C)c5)o2)n4CCN3C)cc1` [Compound I-037] the figure was 9.40.
`Cc1ccc(-c2c([C@H](OC(C)(C)C)C(=O)O)c(C)c3c4c2cc(C(=O)N(C)C)n4CCN3C)cc1` [Compound I-040] had a pEC50 of 7.17.
Turning to `Cc1ccc(-c2c([C@H](OC(C)(C)C)C(=O)O)c(C)c3c4c2cc(-c2nnc(C)o2)n4CCN3C)cc1` [Compound I-041], the pEC50 is 8.34.
On to `Cc1ccc(-c2c([C@H](OC(C)(C)C)C(=O)O)c(C)c3c4c2cc(C(N)=O)n4CCN3C)cc1` [Compound I-044], for which the pEC50 was 7.36.

System in the next data set: not listed separately
Kind of data set: Solubility Test. Conditions: fassgf or other biorelevant, kinetic from dmso stock; 1% DMSO addition, artificial intestinal juice pH 6.8, 16 hours at 25° C. Type of data set: physicochemical. The protocol: The solubility of the compound of the present invention was determined under 1% DMSO addition conditions. A 10 mmol/L solution of the compound was prepared with DMSO, and 6 μL of the solution was added to 594 μL of an artificial intestinal juice (: water and a 118 mL solution of 0.2 mol/L NaOH reagent are added to 250 mL of 0.2 mol/L potassium dihydrogen phosphate reagent to reach 1000 mL) with a pH of 6.8. The mixture was left standing for 16 hours at 25° C., and the mixture was vacuum-filtered. The filtrate was two-fold diluted with methanol/water=1/1(v/v), and the compound concentration in the filtrate was measured with HPLC or LC/MS/MS by the absolute calibration method.
As for `Cc1ccc(-c2c([C@H](OC(C)(C)C)C(=O)O)c(C)c3c4c2cc(-c2ccnc(N5CCN(C(C)C)CC5)c2)n4CCN3S(C)(=O)=O)cc1` [Compound I-017], the solubility at 16 h was greater than 50 µM.

System in a further data set: not listed separately
Kind of data set: BA Test. Conditions: plasma; oral vs intravenous administration, from AUCs, mouse or SD rats. Type of data set: in vivo. The protocol: Materials and methods for studies an oral absorption (1) Animal: mouse or SD rats are used. (2) Breeding conditions: mouse or SD rats were allowed to freely take solid feed and sterilized tap water. (3) Dose and grouping: orally or intravenously administered at a predetermined dose; grouping is as follows (Dose depends on the compound) Oral administration: 1 to 30 mg/kg (n=2 to 3) Intravenous administration: 0.5 to 10 mg/kg (n=2 to 3) (4) Preparation of dosing solution: for oral administration, in a solution or a suspension state; for intravenous administration, in a solubilized state. (5) Administration method: in oral administration, forcedly administer into ventriculus with oralprobe; in intravenous administration, administer from caudal vein with a needle-equipped syringe. (6) Evaluation items: blood is collected over time, and the plasma concentration of drug is measured by LC/MS/MS. (7) Statistical analysis: regarding the transition of the plasma concentration, the area under the plasma concentration-time curve (AUC) is calculated by non-linear least squares program WinNonlin (Registered trademark), and the bioavailability (BA) is calculated from the AUCs of the oral administration group and intravenous administration group. (Result) Compound No. I-30: 45.2%
In turn, `Cc1ccc(-c2c([C@H](OC(C)(C)C)C(=O)O)c(C)c3c4c2cc(-c2ccnc(-c5ccc6c(cnn6C)c5)c2)n4CCN3C)cc1` [Compound I-030] showed a bioavailability of 45.2%.

In a further data set the target is T1, human ether-a-go-go related gene (hERG) channel (Homo sapiens, UniProt Q12809).
T1 construct: expressed in transfected cells; host or cells: HEK293
T1 sequence (Q12809 whole entry): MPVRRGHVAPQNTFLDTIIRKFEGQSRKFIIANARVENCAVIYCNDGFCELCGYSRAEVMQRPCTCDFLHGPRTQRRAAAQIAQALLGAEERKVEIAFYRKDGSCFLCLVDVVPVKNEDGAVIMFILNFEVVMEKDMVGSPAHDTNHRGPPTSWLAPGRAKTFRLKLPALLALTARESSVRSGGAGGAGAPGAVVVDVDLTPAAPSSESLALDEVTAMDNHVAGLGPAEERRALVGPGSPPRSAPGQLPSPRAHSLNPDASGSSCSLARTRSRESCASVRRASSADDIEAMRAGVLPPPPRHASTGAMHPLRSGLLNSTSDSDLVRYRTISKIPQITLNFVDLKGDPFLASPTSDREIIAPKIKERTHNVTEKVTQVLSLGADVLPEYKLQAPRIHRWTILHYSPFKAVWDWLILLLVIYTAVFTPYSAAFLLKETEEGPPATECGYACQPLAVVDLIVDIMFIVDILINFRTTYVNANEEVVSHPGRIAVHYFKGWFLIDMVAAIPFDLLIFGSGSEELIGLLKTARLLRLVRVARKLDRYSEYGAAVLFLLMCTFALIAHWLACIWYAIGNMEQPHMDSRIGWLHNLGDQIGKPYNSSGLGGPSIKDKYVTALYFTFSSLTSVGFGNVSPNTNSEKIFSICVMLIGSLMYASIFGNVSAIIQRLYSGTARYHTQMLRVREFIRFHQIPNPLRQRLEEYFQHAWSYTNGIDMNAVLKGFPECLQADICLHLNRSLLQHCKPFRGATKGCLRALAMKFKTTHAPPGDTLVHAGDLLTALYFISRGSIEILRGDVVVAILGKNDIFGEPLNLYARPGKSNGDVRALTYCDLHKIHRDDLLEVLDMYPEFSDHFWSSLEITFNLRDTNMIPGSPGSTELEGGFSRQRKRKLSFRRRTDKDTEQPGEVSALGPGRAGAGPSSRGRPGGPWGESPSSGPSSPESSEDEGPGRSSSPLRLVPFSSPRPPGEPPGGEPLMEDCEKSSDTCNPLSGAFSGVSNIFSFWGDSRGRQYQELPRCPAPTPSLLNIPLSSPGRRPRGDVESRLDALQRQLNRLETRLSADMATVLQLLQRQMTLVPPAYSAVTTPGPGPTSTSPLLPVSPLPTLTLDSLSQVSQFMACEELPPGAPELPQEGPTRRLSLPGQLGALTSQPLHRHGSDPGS
The data set is described as follows: hERG Test. The class given is cell-based. Particulars: compound concentration 5 μmol/L, HEK293 cells expressing hERG, patch clamp. From the text: For the purpose of assessing risk of an electrocardiogram QT interval prolongation, effects on delayed rectifier K+ current (IKr), which plays an important role in the ventricular repolarization process of the compound of the present invention, was studied using HEK293 cells expressing human ether-a-go-go related gene (hERG) channel.
After a cell was retained at a membrane potential of −80 mV by whole cell patch clamp method using an automated patch clamp system (PatchXpress 7000A, Axon Instruments Inc.), IKr induced by depolarization pulse stimulation at +40 mV for 2 seconds and, further, repolarization pulse stimulation at −50 mV for 2 seconds was recorded. […] From the recording IKr, an absolute value of the tail peak current was measured based on the current value at the resting membrane potential using an analysis software (DataXpress ver. 1, Molecular Devices Corporation). Further, the inhibition relative to the tail peak current before application of the test substance was calculated, and compared with the vehicle-applied group (0.1% dimethyl sulfoxide solution) to access influence of the test substance on IKr. […]
Turning to `Cc1ccc(-c2c([C@H](OC(C)(C)C)C(=O)O)c(C)c3c4c2cc(-c2ccnc(-c5ccc6c(cnn6C)c5)c2)n4CCN3C)cc1` [Compound I-030], the “inhibition ratio (IKr tail peak current)” value is 11.7%.
